Where two headings read alike, the source gives them in different places.
What was measured:
[1] = Radiochemical purity of formulated ^177Lu-PSMA I&T solution by HPLC (stability over time); format: physicochemical
Procedure: pH was estimated by pH paper. Radioactivity was measured in a dose calibrator. Radiochemical purity was determined by liquid chromatography with radioactivity detection and thin layer chromatography.
Radiochemical impurities are quantified by chromatographical methods (HPLC and TLC). Radiochemical purity determined by HPLC must not be less than 95.0%
The radiochemical purity and chemical properties (pH, impurities, visual properties) of [^177Lu]Lu-PSMA I&T in the formulation composition 3 were tested on the seven batches over a time span of 70 to 72 hours from the end-of-synthesis time. Stability samples of typical therapeutic dose radioactivity and volume were stored in different conditions covering typical storage, shipment and usage of the product, including temperatures ranging from +5° C. to +40° C.
Radiochemical purity of each solution was followed by HPLC up to 71-93 hours post-radiolabeling. All solutions were stored at 22.5° C.
Sample Analysis: The pH, radioactivity concentration (RAC), PSMA I&T content, and radiochemical purity (RCP) of the formulations were determined using a variety of analytical techniques described in the following sub-sections. A detailed record of the steps performed for each analysis can be found in Attachment 1-4.
Both the determination of the assay for PSMA I&T and related substances and the RCP of the formulations were determined via HPLC analysis. The system suitability of the instrument was established by triplicate injections of a 15 ppm PSMA I&T standard prior to sample analysis and a single 15 ppm check standard every 10 sample injections. A five-point standard curve of PSMA I&T concentrations between 0.5 and 25 ppm was used to determine the PSMA I&T concentration in the formulations.

[2] = cited from earlier work

O=C([O-])CC[C@H](NC(=O)N[C@@H](CCCCNC(=O)CCCCCCC(=O)NCCCC[C@@H](NC(=O)[C@@H](Cc1ccccc1)NC(=O)[C@@H](Cc1ccc(O)c(I)c1)NC(=O)CC[C@H](C(=O)[O-])N1CCN(CC(=O)[O-])CCN(CC(=O)[O-])CCN(CC(=O)[O-])CC1)C(=O)[O-])C(=O)[O-])C(=O)[O-].[177Lu+3].[H+].[H+].[H+].[H+].[H+] [^177Lu-PSMA I&T, (3S,7S,26R,29R,32R,37R)-29-benzyl-32-(4-hydroxy-3-iodobenzyl)-5,13,20,28,31,34-hexaoxo-37-(4,7,10-tris(carboxymethyl)-1,4,7,10-tetraazacyclododecan-1-yl)-4,6,12,21,27,30,33-heptaazaheptatriacontane-1,3,7,26,37-pentacarboxylic acid; lutetium-177 (III)]
radiochemical purity by HPLC ([1]; 10 ml high RAC formulation, 42.5 mg/ml ascorbic acid, 0 hours post EOS): at least 99%
radiochemical purity by HPLC ([1]; 10 ml high RAC formulation, 42.5 mg/ml ascorbic acid, 46 hours post EOS): at least 93.3%
radiochemical purity by HPLC ([1]; 20 ml low RAC formulation, 31 mg/ml ascorbic acid, 0 hours post EOS): at least 99.1%
radiochemical purity ([1]; decreased strength (0.5 GBq/mL), 72 hours post-end-of-synthesis): above 95%
radiochemical stability among the formulations of Example 3 ([1]; low RAC solution of pH 4.5 and ascorbic acid concentration of 31 mg/ml): highest radiochemical stability
Absorbed Dose, Kidneys, Mean ± SD ([2]; First cycle (n = 15)): 0.71 ± 0.25 Gy/GBq
Absorbed Dose, Kidneys, Range ([2]; First cycle (n = 15)): 0.33-1.22 Gy/GBq
Absorbed Dose, Lacrimal glands, Mean ± SD ([2]; First cycle (n = 15)): 3.8 ± 1.5 Gy/GBq
Absorbed Dose, Lacrimal glands, Range ([2]; First cycle (n = 15)): 1.68-7.03 Gy/GBq
Absorbed Dose, Liver, Mean ± SD ([2]; First cycle (n = 15)): 0.12 ± 0.07 Gy/GBq
Absorbed Dose, Liver, Range ([2]; First cycle (n = 15)): 0.05-0.26 Gy/GBq
Absorbed Dose, Parotid glands, Mean ± SD ([2]; First cycle (n = 15)): 0.56 Gy/GBq
Absorbed Dose, Parotid glands, Range ([2]; First cycle (n = 15)): 0.25-0.84 Gy/GBq
Absorbed Dose, Submandibular glands, Mean ± SD ([2]; First cycle (n = 15)): 0.54 ± 0.29 Gy/GBq
Absorbed Dose, Submandibular glands, Range ([2]; First cycle (n = 15)): 0.25-1.35 Gy/GBq
Effective Dose, Whole body, Mean ± SD ([2]; First cycle (n = 15)): 0.05 Sv/GBq
Effective Dose, Whole body, Range ([2]; First cycle (n = 15)): 0.02-0.11 Sv/GBq
Absorbed Dose for Tumor Lesions, Lung metastases, Mean ± SD ([2]; First cycle, n 1): 2.7 Gy/GBq
Absorbed Dose for Tumor Lesions, Liver metastases, Mean ± SD ([2]; First cycle, n 2): 1.7 Gy/GBq
Absorbed Dose for Tumor Lesions, Liver metastases, Range ([2]; First cycle, n 2): 0.85-2.59 Gy/GBq
Absorbed Dose for Tumor Lesions, Lymph node metastases, Mean ± SD ([2]; First cycle, n 5): 2.6 ± 0.89 Gy/GBq
Absorbed Dose for Tumor Lesions, Lymph node metastases, Range ([2]; First cycle, n 5): 1.63-3.76 Gy/GBq
Absorbed Dose for Tumor Lesions, Bone metastases, Mean ± SD ([2]; First cycle, n 33): 3.8 ± 3.1 Gy/GBq
Absorbed Dose for Tumor Lesions, Bone metastases, Range ([2]; First cycle, n 33): 0.22-12.03 Gy/GBq
Absorbed Dose for Tumor Lesions, All metastases, Mean ± SD ([2]; First cycle, n 41): 3.5 ± 2.9 Gy/GBq
Absorbed Dose for Tumor Lesions, All metastases, Range ([2]; First cycle, n 41): 0.22-12.03 Gy/GBq
Absorbed Dose for Tumor Lesions, Liver metastases, Mean ± SD ([2]; Fourth cycle, n 2): 1.13 Gy/GBq
Absorbed Dose for Tumor Lesions, Liver metastases, Range ([2]; Fourth cycle, n 2): 0.74-1.51 Gy/GBq
Absorbed Dose for Tumor Lesions, Bone metastases, Mean ± SD ([2]; Fourth cycle, n 10): 2.7 ± 2.3 Gy/GBq
Absorbed Dose for Tumor Lesions, Bone metastases, Range ([2]; Fourth cycle, n 10): 1.04-7.60 Gy/GBq
Absorbed Dose for Tumor Lesions, All metastases, Mean ± SD ([2]; Fourth cycle, n 12): 2.4 ± 2.2 Gy/GBq
Absorbed Dose for Tumor Lesions, All metastases, Range ([2]; Fourth cycle, n 12): 0.74-7.60 Gy/GBq
Absorbed Dose, Kidneys, Mean ± SD ([2]; Fourth cycle): 0.69 ± 0.18 Gy/GBq
Absorbed Dose, Kidneys, Range ([2]; Fourth cycle): 0.45-0.95 Gy/GBq
Absorbed Dose, Lacrimal glands, Mean ± SD ([2]; Fourth cycle): 3.4 ± 1.7 Gy/GBq
Absorbed Dose, Lacrimal glands, Range ([2]; Fourth cycle): 1.75-5.35 Gy/GBq
Absorbed Dose, Liver, Mean ± SD ([2]; Fourth cycle): 0.11 ± 0.04 Gy/GBq
Absorbed Dose, Liver, Range ([2]; Fourth cycle): 0.07-0.17 Gy/GBq
Absorbed Dose, Parotid glands, Mean ± SD ([2]; Fourth cycle): 0.50 Gy/GBq
Absorbed Dose, Parotid glands, Range ([2]; Fourth cycle): 0.32-0.58 Gy/GBq
Absorbed Dose, Submandibular glands, Mean ± SD ([2]; Fourth cycle): 0.66 ± 0.53 Gy/GBq
Absorbed Dose, Submandibular glands, Range ([2]; Fourth cycle): 0.24-1.58 Gy/GBq
Effective Dose, Whole body, Mean ± SD ([2]; Fourth cycle): 0.05 Sv/GBq
Effective Dose, Whole body, Range ([2]; Fourth cycle): 0.03-0.11 Sv/GBq
Absorbed Dose, Kidneys, Mean ± SD ([2]; Overall (n = 34)): 0.72 ± 0.21 Gy/GBq
Absorbed Dose, Kidneys, Range ([2]; Overall (n = 34)): 0.33-1.22 Gy/GBq
Absorbed Dose, Lacrimal glands, Mean ± SD ([2]; Overall (n = 34)): 3.8 ± 1.4 Gy/GBq
Absorbed Dose, Lacrimal glands, Range ([2]; Overall (n = 34)): 1.68-7.03 Gy/GBq
Absorbed Dose, Liver, Mean ± SD ([2]; Overall (n = 34)): 0.12 ± 0.06 Gy/GBq
Absorbed Dose, Liver, Range ([2]; Overall (n = 34)): 0.05-0.26 Gy/GBq
Absorbed Dose, Parotid glands, Mean ± SD ([2]; Overall (n = 34)): 0.55 Gy/GBq
Absorbed Dose, Parotid glands, Range ([2]; Overall (n = 34)): 0.25-0.84 Gy/GBq
Absorbed Dose, Submandibular glands, Mean ± SD ([2]; Overall (n = 34)): 0.64 ± 0.40 Gy/GBq
Absorbed Dose, Submandibular glands, Range ([2]; Overall (n = 34)): 0.24-1.70 Gy/GBq
Effective Dose, Whole body, Mean ± SD ([2]; Overall (n = 34)): 0.06 Sv/GBq
Effective Dose, Whole body, Range ([2]; Overall (n = 34)): 0.02-0.11 Sv/GBq
Absorbed Dose for Tumor Lesions, Lung metastases, Mean ± SD ([2]; Overall, n 3): 1.75 ± 0.92 Gy/GBq
Absorbed Dose for Tumor Lesions, Lung metastases, Range ([2]; Overall, n 3): 0.94-2.68 Gy/GBq
Absorbed Dose for Tumor Lesions, Liver metastases, Mean ± SD ([2]; Overall, n 8): 1.2 ± 0.67 Gy/GBq
Absorbed Dose for Tumor Lesions, Liver metastases, Range ([2]; Overall, n 8): 0.47-2.59 Gy/GBq
Absorbed Dose for Tumor Lesions, Lymph node metastases, Mean ± SD ([2]; Overall, n 8): 3.2 ± 2.2 Gy/GBq
Absorbed Dose for Tumor Lesions, Lymph node metastases, Range ([2]; Overall, n 8): 1.63-8.46 Gy/GBq
Absorbed Dose for Tumor Lesions, Bone metastases, Mean ± SD ([2]; Overall, n 74): 3.4 ± 2.7 Gy/GBq
Absorbed Dose for Tumor Lesions, Bone metastases, Range ([2]; Overall, n 74): 0.22-12.03 Gy/GBq
Absorbed Dose for Tumor Lesions, All metastases, Mean ± SD ([2]; Overall, n 93): 3.2 ± 2.6 Gy/GBq
Absorbed Dose for Tumor Lesions, All metastases, Range ([2]; Overall, n 93): 0.22-12.03 Gy/GBq
Absorbed Dose for Tumor Lesions, Lung metastases, Mean ± SD ([2]; Second cycle, n 1): 1.3 Gy/GBq
Absorbed Dose for Tumor Lesions, Liver metastases, Mean ± SD ([2]; Second cycle, n 2): 0.94 Gy/GBq
Absorbed Dose for Tumor Lesions, Liver metastases, Range ([2]; Second cycle, n 2): 0.70-1.17 Gy/GBq
Absorbed Dose for Tumor Lesions, Lymph node metastases, Mean ± SD ([2]; Second cycle, n 2): 5.2 Gy/GBq
Absorbed Dose for Tumor Lesions, Lymph node metastases, Range ([2]; Second cycle, n 2): 1.98-8.46 Gy/GBq
Absorbed Dose for Tumor Lesions, Bone metastases, Mean ± SD ([2]; Second cycle, n 21): 3.4 ± 2.4 Gy/GBq
Absorbed Dose for Tumor Lesions, Bone metastases, Range ([2]; Second cycle, n 21): 1.03-9.59 Gy/GBq
Absorbed Dose for Tumor Lesions, All metastases, Mean ± SD ([2]; Second cycle, n 26): 3.3 ± 2.5 Gy/GBq
Absorbed Dose for Tumor Lesions, All metastases, Range ([2]; Second cycle, n 26): 0.70-8.46 Gy/GBq
Absorbed Dose, Kidneys, Mean ± SD ([2]; Second cycle): 0.75 ± 0.19 Gy/GBq
Absorbed Dose, Kidneys, Range ([2]; Second cycle): 0.44-1.01 Gy/GBq
Absorbed Dose, Lacrimal glands, Mean ± SD ([2]; Second cycle): 4.1 ± 1.1 Gy/GBq
Absorbed Dose, Lacrimal glands, Range ([2]; Second cycle): 2.44-5.56 Gy/GBq
Absorbed Dose, Liver, Mean ± SD ([2]; Second cycle): 0.13 ± 0.05 Gy/GBq
Absorbed Dose, Liver, Range ([2]; Second cycle): 0.08-0.21 Gy/GBq
Absorbed Dose, Parotid glands, Mean ± SD ([2]; Second cycle): 0.59 Gy/GBq
Absorbed Dose, Parotid glands, Range ([2]; Second cycle): 0.47-0.80 Gy/GBq
Absorbed Dose, Submandibular glands, Mean ± SD ([2]; Second cycle): 0.71 ± 0.42 Gy/GBq
Absorbed Dose, Submandibular glands, Range ([2]; Second cycle): 0.40-1.70 Gy/GBq
Effective Dose, Whole body, Mean ± SD ([2]; Second cycle): 0.06 Sv/GBq
Effective Dose, Whole body, Range ([2]; Second cycle): 0.03-0.11 Sv/GBq
Absorbed Dose for Tumor Lesions, Lung metastases, Mean ± SD ([2]; Third cycle, n 1): 0.94 Gy/GBq
Absorbed Dose for Tumor Lesions, Lymph node metastases, Mean ± SD ([2]; Third cycle, n 1): 2.6 Gy/GBq
Absorbed Dose for Tumor Lesions, Lymph node metastases, Range ([2]; Third cycle, n 1): 18.87 Gy/GBq
Absorbed Dose for Tumor Lesions, Liver metastases, Mean ± SD ([2]; Third cycle, n 2): 0.95 Gy/GBq
Absorbed Dose for Tumor Lesions, Liver metastases, Range ([2]; Third cycle, n 2): 0.47-1.42 Gy/GBq
Absorbed Dose for Tumor Lesions, Bone metastases, Mean ± SD ([2]; Third cycle, n 10): 3.2 ± 2.5 Gy/GBq
Absorbed Dose for Tumor Lesions, Bone metastases, Range ([2]; Third cycle, n 10): 1.11-7.99 Gy/GBq
Absorbed Dose for Tumor Lesions, All metastases, Mean ± SD ([2]; Third cycle, n 14): 2.7 ± 2.3 Gy/GBq
Absorbed Dose for Tumor Lesions, All metastases, Range ([2]; Third cycle, n 14): 0.94-7.99 Gy/GBq
Absorbed Dose, Kidneys, Mean ± SD ([2]; Third cycle): 0.73 ± 0.22 Gy/GBq
Absorbed Dose, Kidneys, Range ([2]; Third cycle): 0.42-0.93 Gy/GBq
Absorbed Dose, Lacrimal glands, Mean ± SD ([2]; Third cycle): 3.5 ± 1.4 Gy/GBq
Absorbed Dose, Lacrimal glands, Range ([2]; Third cycle): 2.41-5.04 Gy/GBq
Absorbed Dose, Liver, Mean ± SD ([2]; Third cycle): 0.12 ± 0.06 Gy/GBq
Absorbed Dose, Liver, Range ([2]; Third cycle): 0.07-0.21 Gy/GBq
Absorbed Dose, Parotid glands, Mean ± SD ([2]; Third cycle): 0.49 Gy/GBq
Absorbed Dose, Parotid glands, Range ([2]; Third cycle): 0.32-0.64 Gy/GBq
Absorbed Dose, Submandibular glands, Mean ± SD ([2]; Third cycle): 0.83 ± 0.59 Gy/GBq
Absorbed Dose, Submandibular glands, Range ([2]; Third cycle): 0.33-1.68 Gy/GBq
Effective Dose, Whole body, Mean ± SD ([2]; Third cycle): 0.06 Sv/GBq
Effective Dose, Whole body, Range ([2]; Third cycle): 0.03-0.10 Sv/GBq
mean whole-body effective dose ([2]; all cycles): 0.41±0.18 Sv
mean whole-body effective dose per GBq ([2]; all cycles): 0.06 Sv/GBq

Reference: patent US20250041461A1, “[177LU] LUTETIUM-PSMA I&T COMPOSITION AND DOSIMETRY, KIT, METHOD OF MAKING, AND METHOD OF USING THEREOF” (Curium US LLC, priority 2023, published 2025)
